Data taken from article PMC7037447, “Syntheses of L-Rhamnose-Linked Amino Glycerolipids and Their Cytotoxic Activities against Human Cancer Cells” (Molecules, 2020).
Read-outs that look alike come from different tables or passages of the source.

What was measured:
Hemolytic assay = type: cell-based; details: sheep, ovine erythrocytes (washed suspension), pH 7.4, relative to 1% ammonium hydroxide = 100%, read-out: Highest hemolysis observed
Method: To further evaluate the membrane lytic properties of compound 3, we investigated its capacity to lyse ovine erythrocytes. The highest hemolysis observed with compound 3 was about 6.6% at 100 µM compared to the 1% ammonium hydroxide positive control (Figure 6).
The hemolytic activity of the GAEL analogs was evaluated using ovine erythrocyte. Sheep whole blood was collected from a slaughter house into a vessel containing disodium EDTA ([…]) in a buffered saline (10 mM Tris, 150 mM NaCl, pH 7.4). The erythrocytes were prepared and washed with buffered saline as previously reported. For the assay, the erythrocyte suspension, varying amounts of the GAEL drugs or vehicle were pipetted into 1.5 mL microcentrifuge tubes to give a final volume of 1500 µL and cell density of 2.5 × 10^8 cells/mL. The suspensions were incubated with gentle shaking in Eppendorf thermomixer for 30 min. […] 200 µL of the supernatant was dissolved in 1800 µL of 0.5% NH4OH and the optical density (OD) was recorded using 1 mL cuvette at 540 nm in a spectrophotometer. […] The % hemolysis was calculated using the optical density (OD) values as shown below in Equation (1):% hemolysis = (X − 0%)/(100% − 0%)(1) where X is the OD values of the drug(s) at varying concentration.
Figure 6 Hemolytic properties of GAEL 3 using freshly isolated ovine erythrocytes. […] The values were determined as % of control.

[1] = test system: BT549, MDA-MB-453, MDA-MB-468, and Hs578t (triple negative breast cancer lines); assay: MTS cell viability assay, 48 h, triple negative breast cancer lines; type: cell-based, human; details: with the exception of MDA-MB-453
Method: (§1) Concentrations of compound 3 between 6–15 µM were sufficient to kill all the triple negative cell lines with the exception of MDA-MB-453 where viability was inhibited by 60% at the highest concentration tested. 30 µM of 3 was required for complete loss of viability of the hormone sensitive breast cancer BT474 cell line.
(§2) The cell lines were cultured from frozen stocks originally obtained from ATCC (Manassas, VA, USA). MDA-MB-231, JIMT-1, DU145, MDA-MB-468, Hs578t and MDA-MB-453 were grown in DMEM medium supplemented with 10% FBS. BT-474 cells were grown in DMEM/F12 medium supplemented with 10% FBS. MiaPaCa2 was cultured in DMEM supplemented with 10% FBS and 2.5% horse serum. All the media contained penicillin/streptomycin. U-251 and U-87 in Eagle MEM supplemented by 10% FBS, 1% Non-essential amino acids, 1 mM sodium pyruvate and 2 mM glutamine. BT-549 was cultured in RPMI 1640 medium supplemented with 10% FBS.
(§3) The effects of the GAELs on the viability of the epithelial cancer cell lines were determined as previously described. Briefly, equal numbers of the cells were dispersed into 96-well plates. After 24 h, the cells were incubated with the compounds (0–30 µM) for 48 h. […] (20% v/v) was subsequently added and the plates were incubated for 1–4 h in a CO2 incubator followed by measurement of the medium at OD490 with a plate reader (Molecular Devices). […]

DU-145 [2] = assay: MTS cell viability assay, 48 h; type: cell-based, human; details: Homo sapiens; DU-145, 48 h, MTS; read-out: CC50
Method: (§4) The cells were incubated with increasing concentrations of the compounds (0–30 µM) for 48 h followed by assessment of cell viability using the MTS assay. […] This compound carries a primary amino group at the sn-3 position of the glycerolipid and L-rhamno sugar at the sn-2 position via an α-rhamnosidic linkage.
as §2
(§5) The effects of the GAELs on the viability of the epithelial cancer cell lines were determined as previously described. Briefly, equal numbers of the cells were dispersed into 96-well plates. After 24 h, the cells were incubated with the compounds (0–30 µM) for 48 h. MTS reagent [3-(4,5-dimethylthiazol-2-yl)-5-(3-carboxymethoxyphenyl)-2-(4-sulfophenyl)-2H-tetrazolium, inner salt; Promega, Madison, WI, USA] (20% v/v) was subsequently added and the plates were incubated for 1–4 h in a CO2 incubator followed by measurement of the medium at OD490 with a plate reader (Molecular Devices).

MiaPaCa2 = assay: MTS cell viability assay, 48 h; type: cell-based, human; details: Homo sapiens, MIA PaCa-2; MiaPaCa2, 48 h, MTS; read-out: CC50
Method: as §4, §2, §5

PC-3 = assay: MTS cell viability assay, 48 h; type: cell-based, human; details: Homo sapiens; PC-3, 48 h, MTS; read-out: CC50
Method: as §4
as §5, with “Devices). Wells with media but no cells were treated in similar fashion and the values utilized as blank.” for “Devices).”

JIMT-1 = details: JIMT-1, absence or presence of 40 µM QVD, 48 h
Method: (§6) One of the hallmark features of cytotoxic GAELs is their ability to kill cancer cells via an apoptosis-independent mechanism. We evaluated whether the mechanism of action of 3 was similar to other GAELs.
(§7) Equal numbers of JIMT-1, or DU145 cells were dispersed into 96-well plates, and after 4 h the cells were treated with pan-caspase inhibitor QVD-OPh (40 µM). After 20 h, the cells were incubated with the varying concentration of the compounds ([…]) for 48 h. At the end of the incubation, the MTS assay was used to assess cell viability as described above.
(§8) DU-145 or JIMT-1 cell lines were treated with increasing concentrations of 3 or Adriamycin in the presence or absence of 40 µM QVD. Four hours after plating, cells were treated with QVD. After 20 h, the cells were incubated with 0–15 µM 3 or 0–4 µM Adriamycin for 48 h. Cell viability relative to vehicle control was measured by MTS assay.

DU-145 [3] = details: DU-145, absence or presence of 40 µM QVD, 48 h
Method: as §6, §7, §8

[4] = test system: human epithelial cancer cell lines: breast (MDA-MB-231, JIMT-1), pancreas (MiaPaCa2) and prostate (DU-145, PC-3); assay: MTS cell viability assay, 48 h, across the panel of cell lines; type: cell-based; details: 48 h, 48 h, MTS; for CC50: range or bound over all cell lines, read-out: CC50 values across the cell lines
Method: as §4, §2
as §5, with “Devices). Wells with media but no cells were treated in similar fashion and the values utilized as blank.” for “Devices).”

MDA-MB-453 = assay: MTS cell viability assay, 48 h; type: cell-based, human
Method: as §1, §2, §3

CCCCCCCCCCCCCCCCOCC(CN)OC1OC(C)C(O)C(O)C1O [Compound 3, 3-Amino-1-O-hexadecyloxy-2R-(O–α-L-rhamnopyranosyl)-sn-glycerol]
hemolysis at 30 min, 100 µM (Hemolytic assay): ~6.6%
Concentrations sufficient to kill all the triple negative cell lines [1]: 6 to 15 µM
CC50 (DU-145 [2]): 8.2 µM
CC50 (MiaPaCa2): 8.5 µM
CC50 (PC-3): 11 µM
Effect of QVD on cytotoxicity (JIMT-1): no statistically significant differences
Effect of QVD on cytotoxicity (DU-145 [3]): no statistically significant differences
CC50 ([4]; Homo sapiens): 4.8 to 14 µM
Concentration range giving greater than 90% loss of cell viability ([4]; all the cell lines): 7.5 to 15.0 µM
CC50 [4]: 4.8 to 11 µM
CC50 (MDA-MB-453; Homo sapiens, MDA-MB-453): 13.8 µM
Viability inhibited (MDA-MB-453; MDA-MB-453, at the highest concentration tested): 60%
